Laboratory results from patent publication US6630326B2, “Cancer diagnosis and therapy based on mutations in TGF-β receptors” (Case Western Reserve University, priority 1995, dated 2003).
“Also recorded” adds a separate entry of the source.

Tests used:
[1] = system: RII expression in MCF-7, ZR-75, and T-47D; experiment: RNase protection assay for RII transcript after 5-Azacytidine treatment; assay type: cell-based, human; settings: ER+ breast cancer cell lines MCF-7, ZR-75, T-47D; 2.5-5.0 μM 5-Azacytidine; after 8 days
Description: A preferred method for detecting loss of mRNA is based on RNase protection. Details of this assay have been published in Sun, et al. Briefly the RNase protection assay measures the amount of RII mRNA in a sample by measuring the amount of RNA which binds to a radioactive antisense RII RNA probe. The radioactive antisense RII RNA probe is produced in a test tube, for example from a plasmid which carries 264 bp for RII cDNA (NarI-PstI) cloned downstream of a T3 RNA polymerase site from which the RNA can be transcribed. Usually, a control human probe such as γ-actin RNA is also prepared from a similar plasmid. The probes are hybridized overnight at room temperature in a guanidine buffer with RNA extracted from tumor cells. The next morning probe RNA which is not protected by binding to authentic RII transcript is destroyed by digestion with RNase A+T1. Protected probe RNA is separated from the reaction by electrophoresis on a urea-acrylamide gel and visualized by autoradiography.
Expression of RI and RII transcripts was examined in 38 human colon tumor cell lines using a ribonuclease (RNase) protection assay as described above (see also Sun, et al., 1994). Total RNA (40 μg) from each sample was hybridized overnight in a single reaction to probes for RI, RII and human γ-actin. […]

[2] = system: RII protein expression in MCF-7, ZR-75, and T-47D; experiment: 125I-TGFβ cross-link assay for cell surface RII protein after 5-Azacytidine treatment; assay type: cell-based, human; settings: MCF-7, ZR-75, T-47D; 2.5-5.0 μM 5-Azacytidine; after 8 days
Description: A preferred method of detecting the presence of functional RII is by TGFβ binding assay in which labelled TGFβ binds to RII followed by cross-linking and measurement of the amount of label linked to RII protein. Details of this assay have been published in Sun, et al., incorporated herein by reference. Briefly, cell surface receptors may be detected by cross-linking in situ to ^125I labelled TGFβ followed by separation on SDS-PAGE and visualization by autoradiography as described in Example 3 below.
To assay for expression of cell surface TGFβ receptors, we performed cross-linking experiments with ^125I-labeled TGFβ. Cell surface TGFβ receptors were labeled by cross-linking to ^125I-labeled human TGFβ1 as described in Sun, L., et al., 1994 (J. Biol. Chem., 269:26449). Labeled receptors were resolved by SDS-polyacrylamide gel electrophoresis and visualized by autoradiography. There was no detectable ^125I-TGFβ binding to any of eight tested RER^+ cell lines with reduced amounts of RII transcript (FIG. 3). The absence of RI surface receptors in these lines (FIG. 3) is consistent with previous reports that RII receptor is required for TGFβ binding to RI (Wrana, J., et al., 1992, Cell, 71:1003; Sun, L., et al., 1994, J. Biol. Chem., 269:26449). […]

[3] = system: colon cells with intact TGFβ receptors; experiment: TGFβ-induced cell death in colon cells; assay type: cell-based; settings: colon cells with intact TGFβ receptors exposed to TGFβ
Description: Thus, therapeutic effects of restoring an active RII in colon cancer cells will include restoring normal cell death pathways. RII gene therapy is thus useful in combination with and to sensitize cells to conventional cytotoxic radiation or chemotherapy.

Compound	RII expression (RNase protection assay) [1]	RII protein expression (125I-TGFβ cross-link) [2]	induction of cell death (apoptosis) [3]
Nc1ncn([C@@H]2O[C@H](CO)[C@@H](O)[C@H]2O)c(=O)n1 [5-Azacytidine]	restored RII expression; also recorded: RII expression by the treated cells was demonstrated	RII protein expression was confirmed	–
TGFβ: transforming growth factor beta, natural inhibitor of growth of human epithelial cells	–	–	induce cell death
